The values that follow are results of earlier work, collected in patent publication US4127537A, “Novel tetracosapeptides, intermediates therefor and pharmaceutical compositions and methods employing said tetracosapeptides” (priority 1977, dated 1978).

One series has as its system rat. The note with it: injected directly into the brain of the rat; Belluzzi et al., Nature 260, 625 (1976).
Series [1] has as its system brain opiate receptor sites. The note with it: natural peptide; Bradbury et al., Nature 260, 793 (1976).

For “H-Tyr-Gly-Gly-Phe-Met-OH [methionine enkephalin]”, the analgesic activity result in the series with rat is on record as “weak analgesic agent of short duration”. In series [1], the “binding to partially purified brain opiate receptor sites” value is reported as “binds stereo-specifically”.
